Publication PMC4240912, “Multifaceted interplay between lipophilicity, protein interaction and luminescence parameters of non-intercalative ruthenium(II) polypyridyl complexes controlling cellular imaging and cytotoxic properties” (Journal of Biological Inorganic Chemistry, 2014)

Legend:
[1] = molecular target: T1, human serum albumin (HSA) (Homo sapiens, UniProt P02768); assay: HSA fluorescence quenching (protein-binding experiments); settings: [HSA] = 1 μM, [Ru] 0–10 μM, PBS pH 7.4, 37 °C
Protocol: The protein stock solution was prepared by dissolving human serum albumin (HSA) in water and its concentration was determined spectrophotometrically from the molar absorptivity of 4.4 × 10^4 cm^−1 M^−1 at 280 nm. The emission spectra were recorded between 305 and 500 nm upon excitation at 295 nm resulting in selective excitation of tryptophan residue of HSA. The average of three scans was subjected to smoothing and the fluorescence intensities were corrected due to dilution effects. Protein-binding experiments were conducted by measuring fluorescence spectra of protein solution (1 μM) in the presence of different amounts of ruthenium compounds (0–10 μM) in PBS buffer pH 7.4 at 37 °C. Ru–protein solutions were allowed to incubate for 5 min before the emission spectra were recorded. The quantum yield and lifetime of luminescence for ruthenium complexes in the present of HSA (1 μM) was measured using the same procedure as described for ruthenium complexes alone (the HSA/Ru-complex ratio is given in the figure caption). […]
When molecules are bound to HSA, the change in fluorescence of HSA (Trp214) is induced ether by quenching by binding of molecules in close proximity of the residue or by conformational change of protein caused by the binding or other interactions. Albumin […]
polypyridyl complexes. The contribution to the observed emission from ruthenium complex is marginal. The Stern-Volmer equation has been employed for quantitative analysis of the […]
where F0 and F are the fluorescence intensities of HSA in the absence and the presence of quencher (Q, Ru complex), respectively; kq is the bimolecular quenching constant; τ0 is the average lifetime of the HSA in the absence of quencher (7 × 10-9 s), [Q] is the concentration of quencher, KSV is the Stern–Volmer constant. Since ruthenium complexes both absorb light at the excitation and the emission wavelengths in order to correlate the inner filter effect the following equation was used: where Fcor and F are the corrected/uncorrected fluorescence intensities of HSA, Aem and Aex are the absorbance value of the solution at the emission and the excitation wavelength […]
quenching involving some type of binding interaction between HSA and ruthenium complexes. In this case the Stern-Volmer constant can be consider as an association constant for formation of HSA-Ru-complexes adducts. […]
(also on this page, place not known: nm , Stern -Volmer ][1][1 0 0 QKQkF SVq ·+=·+= τ 10 -9 [ Q] Stern –Volmer es 210 exem AA cor FF + ·= F -binding ct -DNA ba nds complex w ith DNA)

[2] = system: Calf thymus deoxyribonucleic acid; assay: DNA absorption titration (intrinsic DNA-binding constant); settings: [Ru] = 10 µM, 0.05 M Tris/HCl pH 7.4, 37 °C
Protocol: Calf thymus deoxyribonucleic acid was purchased from Sigma-Aldrich and its stock solution was prepared by dissolving of solid DNA in water. DNA concentrations per nucleotide were determined by absorption spectroscopy using the molar absorption coefficient of 6,600 M^−1cm^−1 at the wavelength of 260 nm. DNA-binding experiments were performed in 0.05 M Tris/HCl buffer (pH 7.4) at 37 °C. […] Ruthenium–DNA solutions were allowed to incubate for 5 min before the spectra were recorded. The intrinsic DNA-binding constant was calculated from the following Eq. [4]. DNA/εa-εf=DNA/εa-εf+1/Kbεb-εf, where [DNA] is the total DNA concentration in nucleotides, ε a, ε b, ε f are the apparent absorption coefficients of A/[ruthenium complex] of the MLCT absorption band at a given DNA concentration, fully bound and free ruthenium complex, respectively, K b is binding constant.
To be submitted to Journal of Biological Inorganic Chemistry intercalation.[4] The hypochromism and batochromism at MLCT bands is found usually higher for other reported polypyridyl DNA intercalative Ru(II) complexes.[5-8] To assess this interaction the intrinsic DNA-binding constant was calculated from the following equation […]
where [DNA] is the total DNA concentration in nucleotides, εa, εb, εf are the apparent absorption coefficients of A/[ruthenium complex] of the MLCT absorption band at a given DNA concentration, fully bound and free ruthenium complex, respectively, Kb is binding […]
isosbestic points and gradual decrease of the absorption of MLCT bands. This observation […]
rather week interaction with DNA it is not further discussed.
Fig. S3. Changes in absorption spectra of [Ru(dip)2(CH3bpy-DCU)]2+ and [Ru(dip)2(CH3bpy-CH3)]2+ after addition of ct-DNA. Experimental conditions: [Ru] = 10 μM; Tris/HCl pH 7.4, T = 37°C, A. [DNA] = 0 – 2 μM; B. [DNA] = 5 – 120 μM. […]

4T1 cells [3] = assay: Ruthenium uptake measured by ICP-MS; type: cell-based; settings: 4T1, [Ru-complex] = 2 µM, 24 h
Protocol: Cells were seeded on a 6-well plate with a density of 3 × 10^5 cells per cm^2. 24 h after the incubation ruthenium complexes were added at 2 µM concentration. Cells were incubated in medium without serum for 24 h. After incubation cells were washed twice with PBS, detached by trypsin (trypsin/EDTA from Gibco) treatment, diluted in PBS and counted. Cells were digested in concentrated nitric acid overnight at room temperature and then diluted with water. The ruthenium content of the sample was determined by the inductively coupled plasma mass spectrometry (ICP-MS). Results were calculated as ruthenium concentration per cell (assuming the average volume of cell was 1.7 pL [31]).

4T1 cells [4] = assay: Ruthenium uptake / cell luminescence measured by flow cytometry; type: cell-based; settings: 4T1, [Ru-complex] = 2 µM, 24 h, medium without or with serum (2 %)
Protocol: 4T1 cells were seeded in a 24-well plate with a density of 2 × 10^5 cells per cm^2. 24 h after the seeding Ru(II) compounds were added at 2 µM concentration and incubated for 24 h in medium with or without serum (2 %). Then cells were washed with PBS, detached by trypsin treatment and analyzed by BDLSR cytometer with an excitation wavelength of 488 nm and an emission wavelength of 575 ± 13 nm.

[5] = molecular target: T1, human serum albumin (HSA); assay: Luminescence quantum yield and lifetime in the presence of HSA
Protocol: The protein stock solution was prepared by dissolving human serum albumin (HSA) in water and its concentration was determined spectrophotometrically from the molar absorptivity of 4.4 × 10^4 cm^−1 M^−1 at 280 nm. The emission spectra were recorded between 305 and 500 nm upon excitation at 295 nm resulting in selective excitation of tryptophan residue of HSA. The average of three scans was subjected to smoothing and the fluorescence intensities were corrected due to dilution effects. Protein-binding experiments were conducted by measuring fluorescence spectra of protein solution (1 μM) in the presence of different amounts of ruthenium compounds (0–10 μM) in PBS buffer pH 7.4 at 37 °C. Ru–protein solutions were allowed to incubate for 5 min before the emission spectra were recorded. The quantum yield and lifetime of luminescence for ruthenium complexes in the present of HSA (1 μM) was measured using the same procedure as described for ruthenium complexes alone (the HSA/Ru-complex ratio is given in the figure caption).

T1 sequence (P02768 25-609): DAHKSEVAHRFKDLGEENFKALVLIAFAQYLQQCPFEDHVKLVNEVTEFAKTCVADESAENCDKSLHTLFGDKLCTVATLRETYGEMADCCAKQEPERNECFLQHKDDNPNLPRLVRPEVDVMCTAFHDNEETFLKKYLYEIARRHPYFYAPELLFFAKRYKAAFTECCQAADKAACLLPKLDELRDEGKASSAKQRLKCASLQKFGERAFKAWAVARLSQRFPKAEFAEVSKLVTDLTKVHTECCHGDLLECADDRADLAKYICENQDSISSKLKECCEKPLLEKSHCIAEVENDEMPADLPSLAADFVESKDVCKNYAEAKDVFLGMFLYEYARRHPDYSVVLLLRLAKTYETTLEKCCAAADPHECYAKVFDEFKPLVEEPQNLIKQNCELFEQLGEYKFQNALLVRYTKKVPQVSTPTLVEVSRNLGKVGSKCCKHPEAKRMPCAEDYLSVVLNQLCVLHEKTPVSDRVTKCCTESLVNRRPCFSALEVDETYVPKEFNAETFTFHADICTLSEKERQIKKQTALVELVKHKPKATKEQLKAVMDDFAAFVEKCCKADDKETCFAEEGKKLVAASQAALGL

| φ, quantum yield of luminescence ([5]; PBS pH 7.4, [HSA]/[Ru] = 1) | φ, quantum yield of luminescence ([5]; PBS pH 7.4, in the absence of HSA) | Compound | K a, association constant for formation of HSA-ruthenium(II) polypyridyl complex adducts [1] | K b, binding constant for formation of DNA-ruthenium(II) polypyridyl complex adducts [2] | relative ruthenium accumulation in cells (4T1 cells [3]) | luminescence of cells (flow cytometry) (4T1 cells [4]) |
| --- | --- | --- | --- | --- | --- | --- |
| – | – | Cc1ccnc(-c2cc(C)ccn2)c1.[Ru+2].c1ccc(-c2ccnc3c2ccc2c(-c4ccccc4)ccnc23)cc1.c1ccc(-c2ccnc3c2ccc2c(-c4ccccc4)ccnc23)cc1 [[Ru(dip)2(CH3bpy-CH3)]^2+] | 1.24 ± 0.06 ×10^5 M^−1 | 0.53 ± 0.03 ×10^5 M^−1 | – | – |
| – | – | Cc1ccnc(-c2cc(C(=O)[O-])ccn2)c1.[Ru+2].c1ccc(-c2ccnc3c2ccc2c(-c4ccccc4)ccnc23)cc1.c1ccc(-c2ccnc3c2ccc2c(-c4ccccc4)ccnc23)cc1 [[Ru(dip)2(CH3bpy-COO)]^+] | 1.17 ± 0.04 ×10^5 M^−1 | 1.05 ± 0.15 ×10^5 M^−1 | much smaller accumulation than the rest of the studied complexes | – |
| – | – | [Ru+2].c1ccc(-c2ccccn2)nc1.c1ccc(-c2ccnc3c2ccc2c(-c4ccccc4)ccnc23)cc1.c1ccc(-c2ccnc3c2ccc2c(-c4ccccc4)ccnc23)cc1 [[Ru(dip)2(bpy)]^2+] | 0.78 ± 0.02 ×10^5 M^−1 | 0.82 ± 0.01 ×10^5 M^−1 | – | – |
| – | – | O=[N+]([O-])c1nccn1CCCc1ccnc(-c2ccccn2)c1.[Ru+2].c1ccc(-c2ccnc3c2ccc2c(-c4ccccc4)ccnc23)cc1.c1ccc(-c2ccnc3c2ccc2c(-c4ccccc4)ccnc23)cc1 [[Ru(dip)2(bpy-NitroIm)]^2+] | 1.10 ± 0.06 ×10^5 M^−1 | 0.68 ± 0.01 ×10^5 M^−1 | – | – |
| 0.0472 | 0.0076 | [Ru(dip)2(1,3-dicyclohexyl-1-[4-carbonyl-(4′-methyl-2,2′-bipyridyl)]-urea)]Cl2 [[Ru(dip)2(CH3bpy-DCU)]^2+] | 0.98 ± 0.03 ×10^5 M^−1 | 0.60 ± 0.02 ×10^5 M^−1 | highest accumulation | highest luminescence |
